In patent US9114149B2, “[CU(thp)4]n[X]-n compounds for the treatment of a broad range of human solid tumors, including refractory tumors” (Universita Degli Studi Di Padova, priority 2011, dated 2015):
Where “and” joins values, the source holds several entries; their conditions need not be identical. Equal values may be shown once.

What was measured:
U1285 = assay: MTT cytotoxicity, U1285 (lung); format: cell-based, human; conditions: MTT test, 72 hrs
From the text: (§1) The in vitro antitumor activity of CP had been deeply evaluated in several human cancer cell lines by in vitro cytotoxicity assays. CP cytotoxicity has been detected in a large panel of human cell lines derived from a wide variety of solid tumors, including refractory tumors. In Table 1, the cytotoxicity parameters IC50 (that is the median growth inhibitory concentrations calculated from dose-survival curves via MTT test) are tabulated.
(§2) Cell lines representative of lung (H157, U1810, U1285, Calu-1), pancreas (MIA PaCa-2, BxPC-3, AsPC-1, Capan-1), liver (Huh-7, Hep 3B, SK-Hep-1), oesophagus (OE33, OE21), oesophagus/gastric cardia (OE19), stomach (BGC-823, AGS), colon (HCT-116, T84, COLO 205), breast (MDA-MB-231, SK-BR-3), cervix (CaSki, C-33 A) ovarian (A2780, SK-OV-3, IGROV1), prostate (LnCaP, PC-3) cancers along with melanoma (MEWO, G361, C-32), neuroblastoma (SH-SY5Y, SK-N-AS, IMR-32) and osteosarcoma (U-2 OS, MG-63) have been treated with increasing concentration of CP for 72 hrs.

[1] = test system: human osteosarcoma cells resistant (U-2 OS/Pt) to CDDP; assay: Cross resistance MTT test, U-2 OS Pt (CDDP resistant); format: cell-based; conditions: for IC50: U-2 OS Pt (CDDP resistant), MTT test, 72 h, probit analysis
SK-BR-3 = assay: MTT cytotoxicity, SK-BR-3 (breast); format: cell-based, human; conditions: MTT test, 72 hrs
From the text: as §1, §2

MDA-MB-231 = assay: MTT cytotoxicity, MDA-MB-231 (breast); format: cell-based, human; conditions: MTT test, 72 hrs
From the text: as §1, §2

[2] = test system: human lung (MRC-5) fibroblasts; assay: Cytotoxicity towards human non-tumor cells, MRC-5; format: cell-based; conditions: MRC-5 human lung fibroblasts (non-tumor); MTT test, 72 hrs
[3] = test system: human ovarian adenocarcinoma cells resistant (A2780cisR) to CDDP; assay: Cross resistance MTT test, A2780cisR (CDDP resistant); format: cell-based; conditions: for IC50: A2780cisR (CDDP resistant), MTT test, 72 h, probit analysis; for R.F. (Resistant factor): IC50 resistant/parent line: A2780cisR / A2780
A2780 = assay: MTT cytotoxicity, A2780 (ovary); format: cell-based, human; conditions: MTT test, 72 hrs
From the text: as §1, §2

LNCap = assay: MTT cytotoxicity, LNCap (prostate); format: cell-based, human; conditions: MTT test, 72 hrs
From the text: as §1, §2

T84 = assay: MTT cytotoxicity, T84 (colon); format: cell-based, human; conditions: MTT test, 72 hrs
From the text: as §1, §2

IMR-32 = assay: MTT cytotoxicity, IMR-32 (brain); format: cell-based, human; conditions: MTT test, 72 hrs
H157 = assay: MTT cytotoxicity, H157 (lung); format: cell-based, human; conditions: MTT test, 72 hrs
From the text: as §1, §2

HCT-116 = assay: MTT cytotoxicity, HCT-116 (colon); format: cell-based, human; conditions: MTT test, 72 hrs
From the text: as §1, §2

IGROV1 = assay: MTT cytotoxicity, IGROV1 (ovary); format: cell-based, human; conditions: MTT test, 72 hrs
From the text: as §1, §2

[4] = test system: Lewis lung carcinoma (LLC); assay: Advanced-stage treatment (1) of LLC-bearing mice; format: in vivo, C57BL mice; conditions: for Average tumor weight (mean ± S.D.) / Inhibition of tumor growth: advanced-stage (1); for Average tumor weight (mean ± S.D.): day 15; for Inhibition of tumor growth: day 15, referred to control; for adverse effects / body weight changes during therapy: advanced-stage treatments (1) and (2), FIGS. 2 and 3
Method: Body weight was measured at day 1 and every two days from day 7 and was taken as a parameter of systemic toxicity. The X axis indicates the days after transplantation whereas the Y axis indicates the percentage of body weight changes. […] The error bars indicate the SD.
(§3) The in vivo antitumor activity of CP in LLC tumor model has been further investigated by means of other protocols, such as advanced-stage treatment (1), and advanced-stage treatment (2). For upstaged or advanced stage disease, LLC tumors were allowed to establish and grow to visible (advanced-stage treatment 1) and palpable (advanced-stage treatment 2) size before the start of chemotherapy. The results shown in Table 8 and 9, attested that CP was efficacious even at the lowest dose schedules.

BxPC-3 = assay: MTT cytotoxicity, BxPC-3 (pancreas); format: cell-based, human; conditions: MTT test, 72 hrs
From the text: as §1, §2

BGC-823 = assay: MTT cytotoxicity, BGC-823 (stomach); format: cell-based, human; conditions: MTT test, 72 hrs
From the text: as §1, §2

SH-SY5Y = assay: MTT cytotoxicity, SH-SY5Y (brain); format: cell-based, human; conditions: MTT test, 72 hrs
MIA PaCa-2 = assay: MTT cytotoxicity, MIA PaCa-2 (pancreas); format: cell-based, human; conditions: MTT test, 72 hrs
From the text: as §1, §2

OE19 = assay: MTT cytotoxicity, OE19 (oesophagus/gastric cardia); format: cell-based, human; conditions: MTT test, 72 hrs
From the text: as §1, §2

SK-N-AS = assay: MTT cytotoxicity, SK-N-AS (brain); format: cell-based, human; conditions: MTT test, 72 hrs
[5] = test system: human foreskin (HFFF2) fibroblasts; assay: Cytotoxicity towards human non-tumor cells, HFFF2; format: cell-based; conditions: MTT test, 72 hrs
AGS = assay: MTT cytotoxicity, AGS (stomach); format: cell-based, human; conditions: MTT test, 72 hrs
From the text: as §1, §2

MEWO = assay: MTT cytotoxicity, MEWO (skin); format: cell-based, human; conditions: MTT test, 72 hrs
From the text: as §1, §2

PC-3 = assay: MTT cytotoxicity, PC-3 (prostate); format: cell-based, human; conditions: MTT test, 72 hrs
From the text: as §1, §2

U1810 = assay: MTT cytotoxicity, U1810 (lung); format: cell-based, human; conditions: MTT test, 72 hrs
From the text: as §1, §2

[6] = test system: Lewis lung carcinoma (LLC); assay: Advanced-stage treatment (2) of LLC-bearing mice; format: in vivo, C57BL mice; conditions: advanced-stage (2); for Average tumor weight (mean ± S.D.): day 15; for Inhibition of tumor growth: day 15, referred to control
Method: Body weight was measured at day 1 and every two days from day 9 and was taken as a parameter of systemic toxicity. The X axis indicates the days after transplantation whereas the Y axis indicates the percentage of body weight changes. […] The error bars indicate the SD.
The complete disappearance of primary tumors in these mice was confirmed by dissection on day 15.
as §3

SK-OV-3 = assay: MTT cytotoxicity, SK-OV-3 (ovary); format: cell-based, human; conditions: MTT test, 72 hrs
From the text: as §1, §2

Huh-7 = assay: MTT cytotoxicity, Huh-7 (liver); format: cell-based, human; conditions: MTT test, 72 hrs
From the text: as §1, §2

OE21 = assay: MTT cytotoxicity, OE21 (oesophagus); format: cell-based, human; conditions: MTT test, 72 hrs
From the text: as §1, §2

Hep 3B = assay: MTT cytotoxicity, Hep 3B (liver); format: cell-based, human; conditions: MTT test, 72 hrs
From the text: as §1, §2

[7] = 1.5 mg/kg i.p. daily from day 7
[8] = 50 mg/kg ip days 9-11 then 30 mg/kg days 12-14

Row | SMILES | IC50 (U1285) | IC50 [1] | IC50 (SK-BR-3) | IC50 (MDA-MB-231) | IC50 [2] | IC50 [3] | R.F. (Resistant factor) [3] | IC50 (A2780) | IC50 (LNCap) | IC50 (T84) | IC50 (IMR-32) | IC50 (H157) | IC50 (HCT-116) | IC50 (IGROV1) | adverse effects / body weight changes during therapy [4] | IC50 (BxPC-3) | IC50 (BGC-823) | IC50 (SH-SY5Y) | IC50 (MIA PaCa-2) | IC50 (OE19) | also measured
1 | N.N.[Cl][Pt][Cl] [CDDP, cis-diamminodichloro platinum(II)] | 4370 ± 1060 nM | 14600 ± 1300 nM | 5120 ± 1510 nM | 3230 ± 1560 nM | 19200 ± 1350 nM | 13100 ± 2300 nM | 5.3 | 1250 ± 1010 nM | 1080 ± 1010 nM | 7670 ± 1340 nM | 4450 ± 980 nM | 5990 ± 2710 nM | 8260 ± 1110 nM | 6010 ± 1730 nM | substantial weight loss | 11500 ± 2510 nM | 3210 ± 1000 nM | 5160 ± 1230 nM | 25900 ± 2750 nM | 7450 ± 1370 nM | R.F. (Resistant factor) ([1]; IC50 resistant/parent line: U-2 OS Pt / U-2 OS): 2.5; Average tumor weight (mean ± S.D.) [4, 7]: 0.061 ± 0.03 g; Inhibition of tumor growth [4, 7]: 87.84%; IC50 (SK-N-AS): 18100 ± 1580 nM; IC50 [5]: 20800 ± 2330 nM; IC50 (AGS): 6330 ± 1790 nM; IC50 (MEWO): 6760 ± 1470 nM; IC50 (PC-3): 1570 ± 1130 nM; IC50 (U1810): 3240 ± 1920 nM; Average tumor weight (mean ± S.D.) ([6]; 1.5 mg/kg ip daily from day 9): 0.118 ± 0.10 g; Inhibition of tumor growth ([6]; 1.5 mg/kg ip daily from day 9, 1.5 mg/kg): 72% and 72.68%; IC50 (SK-OV-3): 3040 ± 950 nM; IC50 (Huh-7): 3240 ± 960 nM; IC50 (OE21): 3760 ± 1080 nM; IC50 (Hep 3B): 6150 ± 1480 nM
2 | F[P-](F)(F)(F)(F)F.OC[P+](CO)(CO)[Cu-3]([P+](CO)(CO)CO)([P+](CO)(CO)CO)[P+](CO)(CO)CO [CP, [Cu(thp)4][PF6]] | 870 ± 510 nM | 4300 ± 1100 nM | 1890 ± 990 nM | 2110 ± 1230 nM | 33000 ± 1760 nM | 2100 ± 1200 nM | 1.2 | 990 ± 420 nM | 650 ± 870 nM | 240 ± 40 nM | 720 ± 180 nM | 1510 ± 660 nM | 460 ± 70 nM | 910 ± 940 nM | did not induce any adverse effects | 1340 ± 1110 nM | 1080 ± 660 nM | 660 ± 120 nM | 2450 ± 970 nM | 1660 ± 940 nM | Average tumor weight (mean ± S.D.) ([4]; 30 mg/kg i.p. daily from day 7): 0.088 ± 0.03 g; Inhibition of tumor growth ([4]; 30 mg/kg i.p. daily from day 7): 82.37%; Average tumor weight (mean ± S.D.) ([4]; 50 mg/kg i.p. daily from day 7): 0.071 ± 0.02 g; Inhibition of tumor growth ([4]; 50 mg/kg i.p. daily from day 7): 85.85%; IC50 (SK-N-AS): 940 ± 750 nM; IC50 [5]: 31100 ± 3480 nM; IC50 (AGS): 1140 ± 780 nM; IC50 (MEWO): 1130 ± 740 nM; IC50 (PC-3): 980 ± 970 nM; IC50 (U1810): 760 ± 1020 nM; Average tumor weight (mean ± S.D.) [6, 8]: 0.024 ± 0.03 g; Inhibition of tumor growth [6, 8]: 94.44%; tumor regression (in words) ([6]; 50 mg/kg loading then 30 mg/kg maintenance, after the sixth administration): quite complete tumor regression; IC50 (SK-OV-3): 880 ± 430 nM; IC50 (Huh-7): 760 ± 310 nM; IC50 (OE21): 1190 ± 720 nM; IC50 (Hep 3B): 670 ± 470 nM
